# Experimental data: PMC10341893, “Motifs in Natural Products as Useful Scaffolds to Obtain Novel Benzo[d]imidazole-Based Cannabinoid Type 2 (CB2) Receptor Agonists” (International Journal of Molecular Sciences, 2023)
# Where two headings read alike, the source gives them in different places.
# What was measured:
# hCB2 receptor [1] = target: T1, hCB2 receptor (Homo sapiens, UniProt P34972); test: Single-dose radioligand displacement assay ([3H]WIN55212-2); type: binding; parameters: host or cells: CHO cells; conditions: membranes from recombinant CHO cells expressing human CB2, duplicate; for inhibition at 10 µM: read-out: Inhibition (%) of [3H]WIN55212-2 specific binding, 10 µM single dose; for Inhibition (%) of [3H]WIN55212-2 specific binding: 10 µM single dose
# T1 sequence (P34972 whole entry): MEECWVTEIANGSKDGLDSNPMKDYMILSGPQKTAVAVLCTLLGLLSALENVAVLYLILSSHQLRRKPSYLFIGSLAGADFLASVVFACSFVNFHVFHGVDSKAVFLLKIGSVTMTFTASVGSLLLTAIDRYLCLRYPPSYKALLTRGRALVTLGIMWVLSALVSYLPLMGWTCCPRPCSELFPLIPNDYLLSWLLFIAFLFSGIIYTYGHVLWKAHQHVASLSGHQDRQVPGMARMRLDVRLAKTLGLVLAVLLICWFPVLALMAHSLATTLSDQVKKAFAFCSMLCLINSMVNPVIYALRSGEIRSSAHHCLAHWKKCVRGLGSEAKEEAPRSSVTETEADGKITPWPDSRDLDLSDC
# Experimental: To assess ligand binding to CB2 receptors, radioligand displacement assay at a single dose (10 μM) was performed in membranes obtained from recombinant CHO cells expressing human CB2 receptors (Eurofins Cerep SA, France). Out of 26 compounds, more than 50% of the molecules presented >50% displacement, while 20% of the compounds (5, 6, 16, 19, 22) presented >80% displacement of radioligand binding at a 10 μM dose. Compounds 5, 6, 16, 19, and 22 were further tested for CB2 receptor activation (agonist activity, see below) and CB2/CB1 selectivity.
# All membrane preparations for these studies were generated at Cerep Inc. according to standard protocols. Duplicate determinations were performed for each test compound. Compounds were dissolved in DMSO to generate a stock solution. Radioligand binding methods were adapted from Munro et al..
# human recombinant CB1R = target: T2, human recombinant CB1R (Homo sapiens, UniProt P21554); test: CB1 receptor binding assay ([3H]-CP-55,940 displacement, HEK cell membranes)
# T2 construct: expressed in transfected cells; host or cells: HEK cells
# T2 sequence (P21554 whole entry): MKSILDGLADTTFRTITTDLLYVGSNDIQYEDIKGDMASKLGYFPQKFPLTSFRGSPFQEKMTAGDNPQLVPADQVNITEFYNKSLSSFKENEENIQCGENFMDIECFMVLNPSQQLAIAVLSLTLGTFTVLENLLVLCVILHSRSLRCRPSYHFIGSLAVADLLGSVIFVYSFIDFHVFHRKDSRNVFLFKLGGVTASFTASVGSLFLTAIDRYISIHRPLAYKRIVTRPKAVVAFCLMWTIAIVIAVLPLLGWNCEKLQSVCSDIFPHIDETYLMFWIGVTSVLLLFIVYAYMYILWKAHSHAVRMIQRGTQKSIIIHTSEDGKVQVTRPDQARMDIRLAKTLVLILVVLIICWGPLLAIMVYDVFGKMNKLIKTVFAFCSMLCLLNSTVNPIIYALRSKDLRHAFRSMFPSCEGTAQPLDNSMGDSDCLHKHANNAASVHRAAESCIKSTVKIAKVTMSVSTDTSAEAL
# Experimental: (§1) To assess the compound selectivity between CB1 and CB2 receptors, binding constants were determined through a radioligand displacement assay by testing concentration–response curves for compounds 5, 6, 16, 19, and 22. As shown in Figure 4 and summarized in Table 4, three of the tested compounds (5, 19, and 22) presented moderate binding affinity in a low micromolar range to both CB1 and CB2 receptors.
# (§2) CB1 and CB2 receptor binding assays were performed exactly as previously described. […] Displacement curves were performed by incubating [^3H]-CP-55 940 (90 min, 30 °C) with increasing concentrations of compounds (10 nM−10 μM). Ki values were calculated by applying the Cheng−Prusoff equation to the IC50 values (obtained by GraphPad, Prism Software 9.5) for the displacement of the bound radioligand by compounds.
# hCB2 receptor [2] = target: T1, hCB2 receptor; test: cAMP accumulation assay (forskolin-stimulated, CHO cells expressing hCB2); type: cell-based; conditions: for agonist activity at CB2 (cAMP accumulation): recombinant cells expressing CB2 receptors
# Experimental: Compounds were further characterized through in vitro functional assays by measuring the variation in forskolin-induced cAMP accumulation (Eurofins Cerep services). The tested compounds diminished the accumulation of cyclic AMP, indicating activity as agonists (Figure 3).
# In vitro pharmacology assay for human CB2 agonist effect in CHO cells was performed by Eurofins Cerep (Celle-Lévescault, France). Five compounds were tested at several concentrations for EC50 determination. […] CHO cells stably expressing hCB2 receptor were used to determine agonist effect of compounds, based on the measurement of cAMP level. Assay protocol is adapted from Felder et al..
# hCB2 receptor [3] = target: T1, hCB2 receptor; test: CB2 receptor binding assay ([3H]-CP-55,940 displacement, HEK cell membranes); parameters: expressed in transfected cells; host or cells: HEK cells; conditions: for Ki (CB1)/Ki (CB2): selectivity ratio CB2 over CB1
# Experimental: as §1, §2
# [4] = [3H]-CP-55,940 displacement, means ± SD of 3 independent experiments in duplicate, read-out: Ki CB1
# [5] = [3H]-CP-55,940 displacement, means ± SD of 3 independent experiments in duplicate, read-out: Ki CB2
inhibition at 10 µM (hCB2 receptor [1]) [%],Inhibition (%) of [3H]WIN55212-2 specific binding (hCB2 receptor [1]) [%],SMILES,other results
2,,"CC1CCC(C(C)C)C(Sc2nc3ccccc3n2Cc2cccc3ccccc23)C1 (stereo not shown) [Compound 1, 2-((2-isopropyl-5-methylcyclohexyl)thio)-1-(naphthalen-1-ylmethyl)-1H-benzo[d]imidazole]",
72,,"CC1CCC(C(C)C)C(Sc2nc3ccccc3n2Cc2ccccc2)C1 (stereo not shown) [Compound 2, 1-benzyl-2-((2-isopropyl-5-methylcyclohexyl)thio)-1H-benzo[d]imidazole]",
69,,"CCn1c(SC2CC(C)CCC2C(C)C)nc2ccccc21 (stereo not shown) [Compound 3, 1-ethyl-2-((2-isopropyl-5-methylcyclohexyl)thio)-1H-benzo[d]imidazole]",
37,,"CC1CCC(C(C)C)C(Oc2nc3ccccc3n2Cc2cccc3ccccc23)C1 (stereo not shown) [Compound 4, 2-((2-isopropyl-5-methylcyclohexyl)oxy)-1-(naphthalen-1-ylmethyl)-1H-benzo[d]imidazole]",
42,,"CC(C)=CCC/C(C)=C/CSc1nc2ccccc2n1Cc1cccc2ccccc12 [Compound 7, (E)-2-((3,7-dimethylocta-2,6-dien-1-yl)thio)-1-(naphthalen-1-ylmethyl)-1H-benzo[d]imidazole]",
,71,"CC(C)=CCC/C(C)=C/CSc1nc2ccccc2n1Cc1ccccc1 [Compound 8, (E)-1-benzyl-2-((3,7-dimethylocta-2,6-dien-1-yl)thio)-1H-benzo[d]imidazole]",
54,,"CCn1c(SC/C=C(\C)CCC=C(C)C)nc2ccccc21 [Compound 9, (E)-2-((3,7-dimethylocta-2,6-dien-1-yl)thio)-1-ethyl-1H-benzo[d]imidazole]",
,40,"CC(C)=CCC/C(C)=C/COc1nc2ccccc2n1Cc1cccc2ccccc12 [Compound 10, (E)-2-((3,7-dimethylocta-2,6-dien-1-yl)oxy)-1-(naphthalen-1-ylmethyl)-1H-benzo[d]imidazole]",
35,,"CC(C)=CCC/C(C)=C/COc1nc2ccccc2n1Cc1ccccc1 [Compound 11, (E)-1-benzyl-2-((3,7-dimethylocta-2,6-dien-1-yl)oxy)-1H-benzo[d]imidazole]",
,−3,"CCn1c(OC/C=C(\C)CCC=C(C)C)nc2ccccc21 [Compound 12, (E)-2-((3,7-dimethylocta-2,6-dien-1-yl)oxy)-1-ethyl-1H-benzo[d]imidazole]",
30,,"c1ccc2c(Cn3c(SC45CC6CC(CC(C6)C4)C5)nc4ccccc43)cccc2c1 [Compound 13, 2-(adamantan-1-ylthio)-1-(naphthalen-1-ylmethyl)-1H-benzo[d]imidazole]",
,69,"c1ccc(Cn2c(SC34CC5CC(CC(C5)C3)C4)nc3ccccc32)cc1 [Compound 14, 2-(adamantan-1-ylthio)-1-benzyl-1H-benzo[d]imidazole]",
,63,"CCn1c(SC23CC4CC(CC(C4)C2)C3)nc2ccccc21 [Compound 15, 2-(adamantan-1-ylthio)-1-ethyl-1H-benzo[d]imidazole]",
,61,"CCn1c(OC23CC4CC(CC(C4)C2)C3)nc2ccccc21 [Compound 17, 2-(adamantan-1-yloxy)-1-ethyl-1H-benzo[d]imidazole]",
,46,"COc1ccc(CSc2nc3ccccc3n2Cc2cccc3ccccc23)cc1 [Compound 18, 2-((4-methoxybenzyl)thio)-1-(naphthalen-1-ylmethyl)-1H-benzo[d]imidazole]",
> 80,88,"COc1ccc(CSc2nc3ccccc3n2Cc2ccccc2)cc1 [Compound 19, 1-benzyl-2-((4-methoxybenzyl)thio)-1H-benzo[d]imidazole]",Ki (human recombinant CB1R; [4]): 1230 ± 880 nM; agonist activity at CB2 (cAMP accumulation) (hCB2 receptor [2]): agonist activity was confirmed; Ki (hCB2 receptor [3]; [5]): 930 ± 290 nM; Ki (CB1)/Ki (CB2) (hCB2 receptor [3]): 1.3
63,,"CCn1c(SCc2ccc(OC)cc2)nc2ccccc21 [Compound 20, 1-ethyl-2-((4-methoxybenzyl)thio)-1H-benzo[d]imidazole]",
,62,"COc1cccc(Oc2nc3ccccc3n2Cc2cccc3ccccc23)c1 [Compound 21, 2-(3-methoxyphenoxy)-1-(naphthalen-1-ylmethyl)-1H-benzo[d]imidazole]",
> 80,84,"COc1cccc(Oc2nc3ccccc3n2Cc2ccccc2)c1 [Compound 22, 1-benzyl-2-(3-methoxyphenoxy)-1H-benzo[d]imidazole]",Ki (human recombinant CB1R; [4]): 2040 ± 1220 nM; agonist activity at CB2 (cAMP accumulation) (hCB2 receptor [2]): agonist activity was confirmed; Ki (hCB2 receptor [3]; [5]): 600 ± 520 nM; Ki (CB1)/Ki (CB2) (hCB2 receptor [3]): 3.4
54,,"CCn1c(Oc2cccc(OC)c2)nc2ccccc21 [Compound 23, 1-ethyl-2-(3-methoxyphenoxy)-1H-benzo[d]imidazole]",

SMILES,inhibition at 10 µM (hCB2 receptor [1]) [%],Inhibition (%) of [3H]WIN55212-2 specific binding (hCB2 receptor [1]) [%],other results
"CC1CCC(C(C)C)C(Oc2nc3ccccc3n2Cc2ccccc2)C1 (stereo not shown) [Compound 5, 1-benzyl-2-((2-isopropyl-5-methylcyclohexyl)oxy)-1H-benzo[d]imidazole]",> 80,90,Ki (human recombinant CB1R): 920 ± 1150 nM; EC50 (hCB2 receptor [2]): 14 nM; agonist activity at CB2 (cAMP accumulation) (hCB2 receptor [2]): agonist activity was confirmed; Ki (hCB2 receptor [3]): 400 ± 80 nM; Ki (CB1)/Ki (CB2) (hCB2 receptor [3]): 2.3
"c1ccc(Cn2c(OC34CC5CC(CC(C5)C3)C4)nc3ccccc32)cc1 [Compound 16, 2-(adamantan-1-yloxy)-1-benzyl-1H-benzo[d]imidazole]",> 80,86,Ki (human recombinant CB1R): > 10000 nM; EC50 (hCB2 receptor [2]): 20 nM; agonist activity at CB2 (cAMP accumulation) (hCB2 receptor [2]): agonist activity was confirmed; Ki (hCB2 receptor [3]): 630 ± 190 nM
"CCCCCCC(C)(C)c1cc(OC)cc(Oc2nc3ccccc3n2Cc2cccc3ccccc23)c1 [Compound 24, 2-(3-methoxy-5-(2-methyloctan-2-yl)phenoxy)-1-(naphthalen-1-ylmethyl)-1H-benzo[d]imidazole]",32,,
"CCCCCCC(C)(C)c1cc(OC)cc(Oc2nc3ccccc3n2Cc2ccccc2)c1 [Compound 25, 1-benzyl-2-(3-methoxy-5-(2-methyloctan-2-yl)phenoxy)-1H-benzo[d]imidazole]",33,,
"CCCCCCC(C)(C)c1cc(OC)cc(Oc2nc3ccccc3n2CC)c1 [Compound 26, 1-ethyl-2-(3-methoxy-5-(2-methyloctan-2-yl)phenoxy)-1H-benzo[d]imidazole]",49,,
